We go through one compound from patent US6630169B1, “Particulate delivery systems and methods of use” (priority 2000, dated 2003).

Residues, ends and D or L forms follow the SMILES beside them. *: point of attachment. 5FAM = O=C1OC2(c3ccc(O)cc3Oc3cc(O)ccc32)c2ccc(C(=O)*)cc21

The nature of the data set: Bioavailability of fluorescent-labeled HA PulmoSpheres, plasma peptide by fluorometry. To be noted: mice. The data set is classed as in vivo. The procedure:
A formulation comprising fluoroscein-HA peptide (20% wt/wt) PulmoSpheres (f-HA-Pul) prepared as in Example IV was suspended in perflubron. Metofane anesthetized mice were inoculated intranasally (i.n.) with a […] volume of f-HA-Pul in perflubron, corresponding to […] of peptide dose. Blood samples were collected by ocular bleeding in heparin-treated tubes, the plasma was separated and the concentration of the peptide was measured by fluorometry. As a control, an intravenous i.v.) inoculation of […] of f-HA peptide in […] of sterile saline (n=4 for all groups) was used.

Take `CC[C@H](C)[C@H](NC(=O)[C@H](CCC(=O)O)NC(=O)[C@H](Cc1ccccc1)NC(=O)[C@H](CCCNC(=N)N)NC(=O)[C@H](CCC(=O)O)NC(=O)[C@H](Cc1ccccc1)NC(=O)[C@H](CO)NC(=O)c1ccc2c(c1)C(=O)OC21c2ccc(O)cc2Oc2cc(O)ccc21)C(=O)N[C@@H](Cc1ccccc1)C(=O)N1CCC[C@H]1C(=O)N[C@@H](CCCCN)C(=O)N[C@@H](CCC(=O)O)C(=O)O` [f-HA peptide] (5FAM-SFERFEIFPKE-OH; N-terminus and C-terminus assumed): the “total clearance (elimination via urine)” value is at most 6 h. Moreover, the Tmax (mouse, in vivo, i.n., f-HA-Pul in perflubron) is 20 min. Moreover, for the setting “mouse, in vivo, i.n., f-HA-Pul in perflubron, vs i.v. f-HA peptide in saline, read-out: absolute bioavailability”, the bioavailability was around 5%.

What is called Tmax is the time at which the peak concentration occurs. One may read the bioavailability as dose-corrected exposure relative to a reference, in per cent.
